Assay results: patent US9822091B2, “Method for producing ellagic acid composition” (KAO CORPORATION, priority 2013, dated 2017)

Columns and labels:
[1] = Free ellagic acid dissolved in the aqueous medium of the heat-treated solution (HPLC quantification); assay type: physicochemical
Experimental: (§1) Free ellagic acid was quantified by a gradient method using a high-performance liquid chromatograph manufactured by Hitachi, Ltd. with a column Cadenza CD-C18 (4.6 mmφ×150 mm, 3 μm) manufactured by Imtakt Corporation at a column temperature of 40° C. A 0.05 mol/L aqueous solution of acetic acid was used as a mobile phase solution A, and acetonitrile was used as a mobile phase solution B, respectively, and they were delivered at 1.0 mL/min.
(§2) The sample injection volume was 10 μL, and quantification was carried out based on an absorbance at a wavelength of 254 nm.
Solubilization ratio (%) of free ellagic acid=[(Mass of free ellagic acid dissolved in water or aqueous medium)/(Mass of free ellagic acid in material for heat treatment)]×100
The solution in the slurry supply tank was fed to a stainless-steel flow reactor having an inner volume of 100 mL (manufactured by Nitto Koatsu Co., Ltd.) at 100 mL/min, and was subjected to heat treatment at 110° C. (mean residence time: 1 minute). The pressure was adjusted to 0.3 MPa (gauge pressure) with an outlet valve. […] The cooling rate determined from the time of cooling from 110° C. to 90° C. was 7.88° C./s. A part of the heat-treated solution was sampled, and the amount of free ellagic acid dissolved in the aqueous medium was measured to determine a solubilization ratio.

[2] = Evaluation of solubility: free ellagic acid dissolved in water from the dried ellagic acid composition; assay type: physicochemical
Experimental: as §1, §2
The solubility of free ellagic acid in water in an ellagic acid composition after drying was determined by: adding the ellagic acid composition to distilled water so that the amount of solids was one in an aqueous solution or a suspension before drying; shaking the mixture at 25° C. for 5 minutes; filtering the resultant with a cellulose acetate membrane filter having a pore size of 0.2 μm; and measuring the concentration of ellagic acid dissolved therein.
Solubilization ratio (%) of free ellagic acid=[(Mass of free ellagic acid dissolved in water or aqueous medium)/(Mass of free ellagic acid in material for heat treatment)]×100 […]

Solubilization ratio [1]: 8%
Concentration of free ellagic acid dissolved in aqueous medium (25° C.) ([1]; heat-treated solution before drying, 25° C.): 6000 ng/mL
Solubilization ratio ([2]; 5 min): 6%
Concentration of free ellagic acid dissolved in water (25° C.) ([2]; composition powder after freeze or spray drying, redissolved in distilled water, shaken 5 minutes at 25° C., 0.2 μm filter): 5000 ng/mL
SMILES: O=c1oc2c(O)c(O)cc3c(=O)oc4c(O)c(O)cc1c4c23 [Comparative Example 1, ellagic acid dihydrate]
